Assays:
[1] = Chronic delivery: continuous infusion of dye(s) by Alzet miniosmotic pump for fourteen days, drainage to lymph nodes (photographs, OPD substrate development, histology); format: in vivo, rat; settings: 14 days, open ended catheter, tip became occluded
From the text: (§1) Animals. Male Lewis Inbred rats, six to eight weeks of age, were obtained from Charles River Laboratories and were acclimatized for five days before use. Animals were anesthetized with sodium pentobarbital before implants and dye injections.
(§2) Dyes. Isosulfan blue, india ink, and goat anti rabbit horse radish peroxidase (HRP) were used.
Chronic delivery. Alzet® miniosmotic pumps with a delivery rate of 0.25 or 0.5 microliter/hour (μl/hr) were used to continuously infuse dye(s) for fourteen days. The animals were sacrificed and a gross visual examination of the internal organs was performed to identify dye drainage into internal organs. Lymph nodes were collected, photographed, and analyzed as described in Table 1, below.

[2] = Acute delivery: injection of tracking dye subcutaneously and above the IP wall, dye diffusion and gross visual examination of internal organs; format: in vivo, rat
Protocol: as §1, §2
Acute delivery. 40 microliters (μl) of isosulfan blue was injected subcutaneously and above the IP wall. The location of the injection was varied to detect the site which would drain into the para-aortic lymph nodes. Dye diffusion was monitored at five minutes and thirty minutes. The animals were then sacrificed and a gross visual examination of the internal organs was performed to identify dye drainage into internal organs.

## CCN(CC)c1ccc(C(=C2C=CC(=[N+](CC)CC)C=C2)c2cc(S(=O)(=O)[O-])ccc2S(=O)(=O)[O-])cc1.[Na+] [isosulfan blue, Isosulfan blue]
[1]
  dye in lymph nodes after chronic delivery: not observed
[2]; 40 μl, subcutaneous injection, 30 minutes
  dye diffusion after subcutaneous injection: Minimal diffusion
[2]; injection site 1 cm above the hip joint, covered inguinal and popliteal beds
  staining of internal organs after subcutaneous injection: no internal organs being stained
[2]; peritoneal wall, one centimeter above the hip joint
  dye diffusion after injection into the peritoneal wall: minimal diffusion
[2]; peritoneal wall, one centimeter above the hip joint, covered inguinal and popliteal beds
  staining of internal organs after peritoneal wall injection: no internal organs being stained

From US20070087029A1, “Localized delivery to the lymphatic system” (priority 2005, published 2007)
